In PMC6934184, “Selective DNA-PKcs inhibition extends the therapeutic index of localized radiotherapy and chemotherapy” (The Journal of Clinical Investigation, 2019):

Target: T1, CSNK1G3 (CK1 gamma 3) (Homo sapiens, UniProt Q9Y6M4)
T1 construct: purchased Thermo Fisher Scientific (Life Technologies) SelectScreen
Experiment: SelectScreen Z'LYTE
Type: biochemical
Method: The in vitro kinase selectivity of NU5455 was determined using the SelectScreen Broad Assay Panel (Thermo Fisher Scientific) involving activity and binding assays (Supplemental Table 1). […] Class IA PI3Ks were measured using the p85α subunit.
Kinase [ATP] % Assay Kinase [ATP] % Assay Kinase [ATP] % Assay Kinase [ATP] % Assay
DNA-PK Km app 98.3 Z LATS2 n/a 4.7 L KIT D820E n/a 1.3 L GSK3B (GSK3 beta) Km app -2.5 Z
PIK3C3 (hVPS34) Km app 85.9 A PRKCZ (PKC zeta) Km app 4.7 Z GRK1 n/a 1.3 L BMPR2 n/a -2.5 L
PIK3C2B (PI3K-C2 beta) 10 28.9 A FGFR1 Km app 4.7 Z BRSK2 n/a 1.2 L CDC42 BPB (MRCKB) Km app -2.5 Z
SNF1LK2 Km app 26.6 Z MINK1 Km app 4.6 Z NUAK1 (ARK5) Km app 1.2 A AMPK (A2/B2/G2) n/a -2.6 L
HCK Km app 18.0 Z CSF1R (FMS) Km app 4.3 Z CDK9/cyclin K n/a 1.0 L PRKG1 Km app -2.7 Z
NEK2 Km app 17.8 Z CSNK1G3 (CK1 gamma 3) Km app 4.2 Z NUAK2 n/a 1.0 L KIT T670E n/a -2.8 L
ALK Km app 17.3 Z STK32C (YANK3) n/a 4.2 L CDK2/cyclin O n/a 0.9 L ERBB4 (HER4) Km app -2.8 Z
FGFR3 K650M n/a 16.5 L STK22D (TSSK1) Km app 4.2 Z CAMKK2 (CaMKK beta) n/a 0.9 L PLK4 n/a -2.8 L
SIK3 n/a 16.1 L TAOK3 (JIK) n/a 4.2 L FGFR3 Km app 0.9 Z GRK7 Km app -3.0 Z
LYN A Km app 15.2 Z RPS6KA4 (MSK2) Km app 4.2 Z ULK2 n/a 0.9 L MAPKAPK2 Km app -3.1 Z
BMPR1B (ALK6) n/a 14.5 L PTK2B (FAK2) Km app 4.2 Z KIT D816V n/a 0.9 L FGFR4 Km app -3.1 Z
INSRR (IRR) Km app 14.1 Z CLK2 Km app 4.1 Z CAMK1 (CaMK1) 10 0.8 A CASK n/a -3.1 L
PLK2 Km app 14.1 Z STK24 (MST3) Km app 4.1 Z PTK6 (Brk) Km app 0.7 Z GRK5 Km app -3.2 Z
PRKACA (PKA) Km app 14.0 Z CAMK1D (CaMKI delta) Km app 4.1 Z CAMK2B (CaMKII beta) Km app 0.7 Z EGFR (ErbB1) T790M Km app -3.3 Z
EIF2AK2 (PKR) n/a 13.3 L INSR Km app 4.1 Z ACVR1 (ALK2) n/a 0.7 L PAK4 Km app -3.3 Z
PRKX Km app 12.5 Z IRAK1 Km app 4.0 A ABL1 H396P n/a 0.6 L DAPK3 (ZIPK) Km app -3.4 Z
FGR Km app 12.1 Z SRC N1 Km app 3.9 Z MERTK (cMER) A708S n/a 0.6 L RET M918T n/a -3.5 L
CLK1 Km app 11.7 Z SRPK2 Km app 3.9 Z MAPKAPK5 (PRAK) Km app 0.6 Z PRKCQ (PKC theta) Km app -3.7 Z
MARK3 Km app 11.4 Z RPS6KA6 (RSK4) Km app 3.8 Z AKT1 (PKB alpha) Km app 0.5 Z CAMKK1 (CAMKKA) n/a -3.8 L
PDGFRB (PDGFR beta) Km app 11.0 Z GRK6 Km app 3.7 Z NTRK3 (TRKC) Km app 0.4 Z FLT3 D835Y Km app -3.9 Z
PRKCN (PKD3) Km app 10.7 Z PKN1 (PRK1) Km app 3.6 Z ZAP70 Km app 0.3 Z ROCK2 Km app -4.1 Z
STK16 (PKL12) n/a 10.5 L MAP3K8 (COT) 100 3.5 Z CSNK1A1 (CK1 alpha 1) Km app 0.3 Z CHUK (IKK alpha) Km app -4.2 A
FES (FPS) Km app 10.4 Z FLT4 (VEGFR3) Km app 3.5 Z MYLK (MLCK) n/a 0.2 L AXL Km app -4.2 Z
ABL1 Km app 10.4 Z GRK4 Km app 3.5 Z MKNK2 (MNK2) n/a 0.2 L PIM2 Km app -4.3 Z
MUSK Km app 10.3 Z FRK (PTK5) Km app 3.4 Z AMPK (A1/B1/G3) n/a 0.2 L PAK1 Km app -4.4 Z
MAPK1 (ERK2) Km app 10.1 Z FYN A n/a 3.3 L MAP3K2 (MEKK2) n/a 0.1 L BMPR1A (ALK3) n/a -4.4 L
BRAF 100 9.9 Z CDK1/cyclin A2 n/a 3.3 L CDK8/cyclin C n/a 0.1 L STK4 (MST1) Km app -4.4 Z
IGF1R Km app 9.7 Z KIT V559D T670I n/a 3.1 L MARK2 Km app 0.1 Z PRKCH (PKC eta) Km app -4.6 Z
MAPK14 (p38 alpha) Km app 9.7 Z SPHK2 10 3.1 A ICK n/a 0.0 L SGKL (SGK3) Km app -4.6 Z
LCK Km app 9.6 Z FGFR3 G697C n/a 3.1 L FGFR2 Km app 0.0 Z PI4KB (PI4K beta) Km app -4.7 A
MAPK11 (p38 beta) Km app 9.5 Z RIPK2 n/a 3.1 L AKT2 (PKB beta) Km app 0.0 Z PRKCE (PKC epsilon) Km app -4.9 Z
SRC Km app 9.5 Z PAK6 Km app 3.0 Z EPHB2 Km app -0.1 Z PHKG1 Km app -5.0 Z
CHEK1 (CHK1) Km app 9.3 Z LYN B Km app 3.0 Z TGFBR2 n/a -0.1 L PDGFRA D842V Km app -5.0 Z
CAMK2D (CaMKII delta) Km app 9.3 Z DAPK2 n/a 2.9 L TEK (Tie2) Km app -0.1 Z PRKG2 (PKG2) Km app -5.1 Z
PLK1 Km app 9.2 Z EPHA4 Km app 2.9 Z AURKA (Aurora A) Km app -0.1 Z TYRO3 (RSE) Km app -5.1 Z
RET Y791F Km app 9.2 Z PIK3CG (p110 gamma) Km app 2.9 A KIT D816H n/a -0.2 L TAOK2 (TAO1) Km app -5.1 Z
FLT3 Km app 9.1 Z HIPK1 (Myak) Km app 2.8 Z KIT N822K n/a -0.2 L EPHB4 Km app -5.3 Z
MAPK10 (JNK3) 100 9.0 Z ADRBK2 (GRK3) Km app 2.8 Z PRKACG (PRKAC gamma) n/a -0.2 L AURKC (Aurora C) Km app -5.4 Z
CSNK2A2 (CK2 alpha 2) Km app 8.7 Z STK17B (DRAK2) n/a 2.7 L TEK (TIE2) Y1108F n/a -0.3 L JAK1 Km app -5.7 Z […]

T1 sequence (Q9Y6M4 whole entry): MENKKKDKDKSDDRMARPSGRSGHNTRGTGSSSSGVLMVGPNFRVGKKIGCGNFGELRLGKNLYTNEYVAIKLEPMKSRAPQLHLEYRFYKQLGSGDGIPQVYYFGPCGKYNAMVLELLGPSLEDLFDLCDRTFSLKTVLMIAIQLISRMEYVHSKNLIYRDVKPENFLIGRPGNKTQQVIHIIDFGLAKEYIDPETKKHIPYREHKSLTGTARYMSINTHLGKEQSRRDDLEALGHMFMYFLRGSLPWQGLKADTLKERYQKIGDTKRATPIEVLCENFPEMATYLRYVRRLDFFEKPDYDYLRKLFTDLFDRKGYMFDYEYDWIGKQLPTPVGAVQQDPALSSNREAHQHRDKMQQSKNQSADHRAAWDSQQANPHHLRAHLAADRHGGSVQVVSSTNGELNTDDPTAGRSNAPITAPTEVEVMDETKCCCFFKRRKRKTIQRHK

With `CN(C(=O)CN1CCOCC1)c1ccc2sc3c(-c4cccc5c(=O)cc(N6CC7CCC(C6)O7)oc45)cccc3c2c1` [NU5455] the inhibition at 1 µM was 4.2%.
